The record followed here is patent US20240376120A1, “CAMPTOTHECIN COMPOUND, PREPARATION METHOD THEREFOR AND USE THEREOF” (priority 2021, published 2024).

In one assay the test system is MDA-MB-231 cells (human breast cancer cells). The assay is described as follows: MDA-MB-231 cell proliferation inhibitory assay (CellTiter-Glo). Type of assay: cell-based. The conditions noted are these: Homo sapiens, MDA-MB-231, 72 h, read-out: Proliferation inhibition IC50. As to the method:
(§1) • 1). […] Resuspend an appropriate amount of cell suspension to 3000 cells/100 μL according to the count, mixed well and then put the corresponding number of cells into a 96-well plate by pipette. • 3). Each hole of the edge was sealed with 100 μL DPBS and put into an incubator for culture. • 4). Day 1 drug addition: Prepare the storage solution of the compound to be tested 1 hour in advance. 24 h after plating, the culture medium was gradiently diluted to a concentration twice the final concentration of each group. Take out the plated cells from the incubator and add 100 μL of the corresponding 2-fold concentration medium to each well by pipette. • 5). Day 1 detected: Take out an appropriate amount of CTG 1 h in advance and the plate was allowed to equilibrate at room temperature for 30 min. 100 μL of CTG was added to each well and shaken for 5 mins, and then standed in the dark for 5 mins, the luminescence value was detected by ELISA. • 6). Day 4 detection: Take an appropriate amount of CTG 1 h in advance and rewarm it at room temperature in the dark. At the same time, take out the plate to be tested from the incubator and leave it to equilibrate at room temperature for 30 minutes; 72 h after adding the drug, 100 μL of culture medium was sucked out with pipette carefully from each cell well, and 100 μL of CTG was added. The mixture was shaken for 5 min, and after equilibration in the dark for 5 min, the luminescence value was detected with ELISA. • 7). Analyze data and write detailed experimental records.
(§2) Input the compound into graphpad prism to obtain the corresponding IC50 value.
Background: ATP-based viability assays read luminescence as a measure of living cells.
For `CC[C@@]1(O)C(=O)OCc2c1cc1n(c2=O)Cc2c-1nc1cc(F)c(C)cc1c2[C@H](C)NCCNC` [Example 25c], the IC50 worked out at 35.6 nM.

For the molecule `CC[C@@]1(O)C(=O)OCc2c1cc1n(c2=O)Cc2c-1nc1cc(F)c(C)cc1c2[C@H](C)NC(=O)C1CCCCC1O` (stereo partly drawn) [Example 26], the IC50 turned out to be 150 nM.

Turning to `CC[C@@]1(O)C(=O)OCc2c1cc1n(c2=O)Cc2c-1nc1cc(F)c(C)cc1c2[C@@H](C)NS(C)(=O)=O` [Example 26a], the IC50 came out at 89.2 nM.

Take `CC[C@@]1(O)C(=O)OCc2c1cc1n(c2=O)Cc2c-1nc1cc(F)c(C)c(C)c1c2[C@H](C)N` [Example 29a]: the IC50 was 10 nM.

For `CC[C@@]1(O)C(=O)OCc2c1cc1n(c2=O)Cc2c-1nc1cc(F)c(C)c(C)c1c2[C@@H](C)N` [Example 29b], the IC50 amounted to 6.6 nM.

Consider `CC[C@@]1(O)C(=O)OCc2c1cc1n(c2=O)Cc2c-1nc1cc(F)c(OC)cc1c2[C@H](C)N` [Example 30a], for which the IC50 was found to be 11.6 nM.

Consider `CC[C@@]1(O)C(=O)OCc2c1cc1n(c2=O)Cc2c-1nc1cc(F)c(OC)cc1c2[C@@H](C)N` [Example 30b], for which the IC50 came out at 25 nM.

As for `CC[C@@]1(O)C(=O)OCc2c1cc1n(c2=O)Cc2c-1nc1cc(F)c(OC)cc1c2[C@H](C)O` [Example 30c], the IC50 amounted to 12.2 nM.

For the molecule `CC[C@@]1(O)C(=O)OCc2c1cc1n(c2=O)Cc2c-1nc1cc(F)c(OC)cc1c2[C@@H](C)O` [Example 30d], the IC50 stood at 28.1 nM.

`CC[C@@]1(O)C(=O)OCc2c1cc1n(c2=O)Cc2c-1nc1ccc(OC)cc1c2[C@H](C)N` [Example 31a]: the IC50 was 15.1 nM.

On to `CC[C@@]1(O)C(=O)OCc2c1cc1n(c2=O)Cc2c-1nc1ccc(OC)cc1c2[C@@H](C)N` [Example 31b], for which the IC50 worked out at 9.2 nM.

Take `CC[C@@]1(O)C(=O)OCc2c1cc1n(c2=O)Cc2c-1nc1ccc(OC)cc1c2[C@H](C)O` [Example 31c]: the IC50 is 18.3 nM.

Consider `CC[C@@]1(O)C(=O)OCc2c1cc1n(c2=O)Cc2c-1nc1ccc(OC)cc1c2[C@@H](C)O` [Example 31d], for which the IC50 turned out to be 8.3 nM.

For the molecule `CC[C@@]1(O)C(=O)OCc2c1cc1n(c2=O)Cc2c-1nc1ccc(C(F)F)cc1c2[C@H](C)N` [Example 32a], the IC50 worked out at 16.7 nM.

For `CC[C@@]1(O)C(=O)OCc2c1cc1n(c2=O)Cc2c-1nc1ccc(C(F)F)cc1c2[C@@H](C)N` [Example 32b], the IC50 came out at 20.2 nM.

For another assay, the system named is MCF-7 cells (human breast cancer cells). The assay is described as follows: MCF-7 cell proliferation inhibitory assay (CellTiter-Glo). Type of assay: cell-based. The conditions noted are these: Homo sapiens, MCF7, 72 h, read-out: Proliferation inhibition IC50. As to the method:
• 1). […] Resuspend an appropriate amount of cell suspension to 4000 cells/100 μL according to the count, mixed well and then put the corresponding number of cells into a 96-well plate by pipette. • 3). Each hole of the edge was sealed with 100 μL DPBS and put into an incubator for culture. • 4). Day 1 drug addition: Prepare the storage solution of the compound to be tested 1 hour in advance. 24 h after plating, the culture medium was gradiently diluted to a concentration twice the final concentration of each group. Take out the plated cells from the incubator and add 100 μL of the corresponding 2-fold concentration medium to each well by pipette.
Day 1 detected: Take out the plate to be tested and an appropriate amount of CTG in advance and rewarm it at room temperature in the dark. 50 μL of CTG was added to each well at 24 h. Shake with the oscillator for 5 minutes, and after balancing in the dark for 5 minutes, detect the luminescence value with a microplate reader; The mixture was shaken for 5 min, and after equilibration in the dark for 5 min, the luminescence value was detected with ELISA. • 6). Day 4 detection: Take an appropriate amount of CTG 1 h in advance and rewarm it at room temperature in the dark. At the same time, take out the plate to be tested from the incubator and leave it to equilibrate at room temperature for 30 minutes; 72 h after adding the drug, 100 μL of culture medium was sucked out with pipette carefully from each cell well, and 50 μL of CTG was added. The mixture was shaken for 5 min, and after equilibration in the dark for 5 min, the luminescence value was detected with ELISA analyzer. • 7). Data analysis and processed.
Collect data and convert it into survival rate: Inhibition rate (%)=(100−(OD value of compound-OD value on the first day)/(OD value of control well-OD value on the first day))×100%
as §2
As for `CC[C@@]1(O)C(=O)OCc2c1cc1n(c2=O)Cc2c-1nc1cc(F)c(C)cc1c2[C@H](C)NCCNC` [Example 25c], the IC50 is 15.3 nM.

Consider `CC[C@@]1(O)C(=O)OCc2c1cc1n(c2=O)Cc2c-1nc1cc(F)c(C)cc1c2[C@H](C)NC(=O)C1CCCCC1O` (stereo partly drawn) [Example 26], for which the IC50 is 35.2 nM.

With `CC[C@@]1(O)C(=O)OCc2c1cc1n(c2=O)Cc2c-1nc1cc(F)c(C)cc1c2[C@@H](C)NS(C)(=O)=O` [Example 26a], the IC50 stood at 13.3 nM.

Take `CC[C@@]1(O)C(=O)OCc2c1cc1n(c2=O)Cc2c-1nc1cc(F)c(C)c(C)c1c2[C@H](C)N` [Example 29a]: the IC50 is 4.5 nM.

Take `CC[C@@]1(O)C(=O)OCc2c1cc1n(c2=O)Cc2c-1nc1cc(F)c(C)c(C)c1c2[C@@H](C)N` [Example 29b]: the IC50 stood at 2.1 nM.

As for `CC[C@@]1(O)C(=O)OCc2c1cc1n(c2=O)Cc2c-1nc1cc(F)c(OC)cc1c2[C@H](C)N` [Example 30a], the IC50 stood at 6.3 nM.

With `CC[C@@]1(O)C(=O)OCc2c1cc1n(c2=O)Cc2c-1nc1cc(F)c(OC)cc1c2[C@@H](C)N` [Example 30b], the IC50 was determined as 3.8 nM.

As to `CC[C@@]1(O)C(=O)OCc2c1cc1n(c2=O)Cc2c-1nc1cc(F)c(OC)cc1c2[C@H](C)O` [Example 30c], the IC50 was found to be 8.1 nM.

Take `CC[C@@]1(O)C(=O)OCc2c1cc1n(c2=O)Cc2c-1nc1cc(F)c(OC)cc1c2[C@@H](C)O` [Example 30d]: the IC50 worked out at 4.1 nM.

As to `CC[C@@]1(O)C(=O)OCc2c1cc1n(c2=O)Cc2c-1nc1ccc(OC)cc1c2[C@H](C)N` [Example 31a], the IC50 stood at 8.2 nM.

For `CC[C@@]1(O)C(=O)OCc2c1cc1n(c2=O)Cc2c-1nc1ccc(OC)cc1c2[C@@H](C)N` [Example 31b], the IC50 turned out to be 4.1 nM.

`CC[C@@]1(O)C(=O)OCc2c1cc1n(c2=O)Cc2c-1nc1ccc(OC)cc1c2[C@H](C)O` [Example 31c]: the IC50 was determined as 10.2 nM.

Turning to `CC[C@@]1(O)C(=O)OCc2c1cc1n(c2=O)Cc2c-1nc1ccc(OC)cc1c2[C@@H](C)O` [Example 31d], the IC50 turned out to be 8.1 nM.

With `CC[C@@]1(O)C(=O)OCc2c1cc1n(c2=O)Cc2c-1nc1ccc(C(F)F)cc1c2[C@H](C)N` [Example 32a], the IC50 came out at 7.5 nM.

With `CC[C@@]1(O)C(=O)OCc2c1cc1n(c2=O)Cc2c-1nc1ccc(C(F)F)cc1c2[C@@H](C)N` [Example 32b], the IC50 worked out at 5.5 nM.

The next assay deals with MDA-MB-435s cells (human melanoma cells). Description: MDA-MB-435s cell proliferation inhibitory assay (CellTiter-Glo). Type of assay: cell-based. Conditions: Homo sapiens, MDA-MB-435S, 72 h, read-out: Proliferation inhibition IC50. The procedure: as §1
Collect data and convert it into survival rate: Inhibition rate (%)=(100−(OD value of compound−OD value on the first day)/(OD value of control well-OD value on the first day))×100%
as §2
`CC[C@@]1(O)C(=O)OCc2c1cc1n(c2=O)Cc2c-1nc1cc(F)c(C)cc1c2[C@H](C)NCCNC` [Example 25c]: the IC50 worked out at 3.3 nM.

For `CC[C@@]1(O)C(=O)OCc2c1cc1n(c2=O)Cc2c-1nc1cc(F)c(C)cc1c2[C@H](C)NC(=O)C1CCCCC1O` (stereo partly drawn) [Example 26], the IC50 was found to be 5.6 nM.

For `CC[C@@]1(O)C(=O)OCc2c1cc1n(c2=O)Cc2c-1nc1cc(F)c(C)cc1c2[C@@H](C)NS(C)(=O)=O` [Example 26a], the IC50 worked out at 2.8 nM.

With `CC[C@@]1(O)C(=O)OCc2c1cc1n(c2=O)Cc2c-1nc1cc(F)c(C)c(C)c1c2[C@H](C)N` [Example 29a], the IC50 came to 2.1 nM.

For `CC[C@@]1(O)C(=O)OCc2c1cc1n(c2=O)Cc2c-1nc1cc(F)c(C)c(C)c1c2[C@@H](C)N` [Example 29b], the IC50 was 0.72 nM.

For `CC[C@@]1(O)C(=O)OCc2c1cc1n(c2=O)Cc2c-1nc1cc(F)c(OC)cc1c2[C@H](C)N` [Example 30a], the IC50 was found to be 3.3 nM.

Consider `CC[C@@]1(O)C(=O)OCc2c1cc1n(c2=O)Cc2c-1nc1cc(F)c(OC)cc1c2[C@@H](C)N` [Example 30b], for which the IC50 was found to be 0.9 nM.

Consider `CC[C@@]1(O)C(=O)OCc2c1cc1n(c2=O)Cc2c-1nc1cc(F)c(OC)cc1c2[C@H](C)O` [Example 30c], for which the IC50 was determined as 3.8 nM.

On to `CC[C@@]1(O)C(=O)OCc2c1cc1n(c2=O)Cc2c-1nc1cc(F)c(OC)cc1c2[C@@H](C)O` [Example 30d], for which the IC50 was 1.2 nM.

Turning to `CC[C@@]1(O)C(=O)OCc2c1cc1n(c2=O)Cc2c-1nc1ccc(OC)cc1c2[C@H](C)N` [Example 31a], the IC50 is 3.8 nM.

On to `CC[C@@]1(O)C(=O)OCc2c1cc1n(c2=O)Cc2c-1nc1ccc(OC)cc1c2[C@@H](C)N` [Example 31b], for which the IC50 came out at 1 nM.

Consider `CC[C@@]1(O)C(=O)OCc2c1cc1n(c2=O)Cc2c-1nc1ccc(OC)cc1c2[C@H](C)O` [Example 31c], for which the IC50 was 5.8 nM.

As for `CC[C@@]1(O)C(=O)OCc2c1cc1n(c2=O)Cc2c-1nc1ccc(OC)cc1c2[C@@H](C)O` [Example 31d], the IC50 was determined as 2.3 nM.

For `CC[C@@]1(O)C(=O)OCc2c1cc1n(c2=O)Cc2c-1nc1ccc(C(F)F)cc1c2[C@H](C)N` [Example 32a], the IC50 was found to be 3.37 nM.

For the molecule `CC[C@@]1(O)C(=O)OCc2c1cc1n(c2=O)Cc2c-1nc1ccc(C(F)F)cc1c2[C@@H](C)N` [Example 32b], the IC50 came out at 1.85 nM.
